Measured values as given in the NIST ThermoML archive (doi:10.1007/s10765-015-2009-x).
± gives the expanded uncertainty stated by the source.

Assay: mn = molality of the nth substance listed, in mol/kg
Details: 101 kPa, Liquid, Pycnometric method

Cl.N[C@@H](CCC(=O)O)C(=O)O [L-glutamic acid hydrochloride] + O
mass density [kg/m3]
Details	m1 = 0.01009	m1 = 0.02021	m1 = 0.02997	m1 = 0.03992	m1 = 0.05011	m1 = 0.06005
298.15 K	1000 ± 0.3	1000.9 ± 0.3	1001.6 ± 0.3	1002.3 ± 0.3	1002.9 ± 0.3	1003.6 ± 0.3
303.15 K	998.9 ± 0.3	999.9 ± 0.3	1000.6 ± 0.3	1001.2 ± 0.3	1001.8 ± 0.3	1002.4 ± 0.3
308.15 K	997.6 ± 0.3	998.7 ± 0.3	999.4 ± 0.3	1000 ± 0.3	1000.6 ± 0.3	1001.1 ± 0.3
313.15 K	996.1 ± 0.3	997.3 ± 0.3	998 ± 0.3	998.6 ± 0.3	999.2 ± 0.3	999.8 ± 0.3
